The record followed here is PubChem BioAssay AID328 (DTP/NCI, 2004).

In this experiment the test system is BDF1 mice, P388 leukemia ip, median survival T/C. Description: NCI In Vivo Anticancer Drug Screen. Data for tumor model P388 Leukemia (intraperitoneal) in B6D2F1 (BDF1) mice. The settings on record: endpoint: median survival time, higher = longer survival. Put shortly: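 Each value expresses how treatment altered survival: treated-mouse outcome over vehicle-mouse outcome, both groups bearing the transplanted tumour.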

Where [1] appears, read: dose: 50.0 mg/kg/injection, schedule: Q01DX009 (ip), vehicle: saline with Tween-80.
Setting [2] is: dose: 100.0 mg/kg/injection, schedule: Q01DX009 (ip), vehicle: saline with Tween-80.
[3] abbreviates: dose: 25.0 mg/kg/injection, schedule: Q01DX009 (ip), vehicle: saline with Tween-80.
[4] abbreviates: dose: 200.0 mg/kg/injection, schedule: Q01DX009 (ip), vehicle: saline with Tween-80.
The mark [5] stands for this setting: dose: 200.0 mg/kg/injection, schedule: Q04DX003 (ip), vehicle: saline with Tween-80.
Setting [6] is: dose: 400.0 mg/kg/injection, schedule: Q04DX003 (ip), vehicle: saline with Tween-80.
Setting [7] is: dose: 50.0 mg/kg/injection, schedule: Q04DX003 (ip), vehicle: saline with Tween-80.
Setting [8] is: dose: 100.0 mg/kg/injection, schedule: Q04DX003 (ip), vehicle: saline with Tween-80.

The structures appear in SMILES notation. Where “and” joins values, the source holds several entries; their conditions need not be identical. Equal entries are not always repeated. Inconclusive results and toxic doses are left out.

On to `O=C(OCC#CC#CCOC(=O)c1cccc2ccccc12)c1cccc2ccccc12`, for which the T/C was 100 % of control (dose: 100.0 mg/kg/injection, schedule: Q01DX009 (ip), vehicle: Klucel (hydroxypropylcellulose) (HPC)); 95 % of control (dose: 200.0 mg/kg/injection, schedule: Q01DX009 (ip), vehicle: Klucel (hydroxypropylcellulose) (HPC)); 105 % of control (dose: 400.0 mg/kg/injection, schedule: Q01DX009 (ip), vehicle: Klucel (hydroxypropylcellulose) (HPC)).

With `CCOC(=O)Oc1ccc(/C=N/NC(N)=S)nc1`, the T/C by setting is: under setting [1], 169 % of control; under setting [2], 178 % of control.

As to `O=C1CN(c2ccccc2)CC(=O)N2Cc3ccccc3CN12`, the T/C (dose: 100.0 mg/kg/injection, schedule: Q01DX005 (ip), vehicle: saline with Tween-80) was 101 % of control.

Consider `CN1CCN(C)P1OCC(F)(F)F`, for which the T/C by setting is: (dose: 25.0 mg/kg/injection, schedule: Q01DX005 (ip), vehicle: saline) 87 % of control; (dose: 50.0 mg/kg/injection, schedule: Q01DX005 (ip), vehicle: saline) 100 % of control; (dose: 100.0 mg/kg/injection, schedule: Q01DX005 (ip), vehicle: saline) 87 % of control.

Regarding `CCOC(=O)CCCN(c1[nH]c(C)c(C)c1C#N)S(=O)(=O)c1ccc(C)cc1`, the T/C reads like this: under setting [3], 109 % of control; under setting [1], 100 % of control; under setting [2], 113 % of control; under setting [4], 104 % of control; under setting [5], 87 % of control; under setting [6], 95 % of control.

For `CCCCCCCCCCCCCCCC[N+](C)(C)c1ccccc1`, the T/C by setting is: (dose: 1.56 mg/kg/injection, schedule: Q04DX003 (ip), vehicle: saline with Tween-80) 110 % of control; (dose: 3.13 mg/kg/injection, schedule: Q04DX003 (ip), vehicle: saline with Tween-80) 115 % of control; (dose: 25.0 mg/kg/injection, schedule: Q04DX003 (ip), vehicle: saline with Tween-80) 108 % of control.

As to `CCCCCCCCCCCCCCCC(=O)NCCO`, the T/C (dose: 100.0 mg/kg/injection, schedule: Q04DX003 (ip), vehicle: saline sonified) was 91 % of control.

For the compound `OC(CCl)Cc1ccccc1` (stereo not given), the T/C is, setting by setting: under setting [3], 109 % of control; under setting [1], 109 % of control.

Consider `CCCCCCCCCCCCCCCCS(=O)(=O)N/N=C/C(=O)O`, for which the T/C (dose: 12.5 mg/kg/injection, schedule: Q01DX009 (ip), vehicle: other) was 116 % of control.

For `CC1CCCC2(CN=C(Nc3ccccc3)O2)C1` (stereo not given), the T/C (dose: 100.0 mg/kg/injection, schedule: Q01DX001 (ip), vehicle: Klucel (hydroxypropylcellulose) (HPC)) was 99 % of control and the T/C (dose: 200.0 mg/kg/injection, schedule: Q01DX001 (ip), vehicle: Klucel (hydroxypropylcellulose) (HPC)) is 114 % of control.

Consider `NC(=NCCCC(NCc1ccccc1)C(=O)O)N[N+](=O)[O-]` (stereo not given), for which the T/C was 103 % of control (dose: 50.0 mg/kg/injection, schedule: Q04DX003 (ip), vehicle: saline + alcohol); 99 % of control (dose: 100.0 mg/kg/injection, schedule: Q04DX003 (ip), vehicle: saline + alcohol); 94 % of control (dose: 200.0 mg/kg/injection, schedule: Q04DX003 (ip), vehicle: saline + alcohol); 105 % of control (dose: 400.0 mg/kg/injection, schedule: Q04DX003 (ip), vehicle: saline + alcohol).

Take `O=S(=O)(CBr)N1CCOCC1`: the T/C is 95 % of control (dose: 50.0 mg/kg/injection, schedule: Q01DX001 (ip), vehicle: saline with Tween-80); 100 % of control (dose: 100.0 mg/kg/injection, schedule: Q01DX001 (ip), vehicle: saline with Tween-80); 108 % of control (dose: 200.0 mg/kg/injection, schedule: Q01DX001 (ip), vehicle: saline with Tween-80).

For the compound `C/C(=C\c1ccc(N(C)C)cc1C)[N+](=O)[O-]`, the T/C runs as follows: under setting [1], 116 % of control and 118 % of control; under setting [2], 114 % of control and 124 % of control; under setting [4], 122 % of control.

Take `CC1C=CCC(C)(C)C1` (stereo not given): the T/C under setting [3] was 104 % of control; the T/C under setting [1] is 100 % of control; the T/C under setting [2] is 100 % of control and 113 % of control.

Regarding `O=Cc1[nH]c(=O)[nH]c(=O)c1Br`, the T/C under setting [7] was 112 % of control.

`C=C1C(=O)O[C@@H]2[C@H]3O[C@]3(C)CCC=C(C)CC[C@@H]12`: the T/C (dose: 6.25 mg/kg/injection, schedule: Q01DX009 (ip), vehicle: alcohol) was 90 % of control; the T/C (dose: 12.5 mg/kg/injection, schedule: Q01DX009 (ip), vehicle: alcohol) was 122 % of control; the T/C (dose: 25.0 mg/kg/injection, schedule: Q01DX009 (ip), vehicle: alcohol) was 122 % of control; the T/C (dose: 50.0 mg/kg/injection, schedule: Q01DX009 (ip), vehicle: alcohol) is 113 % of control.

In the case of `CSCC(C(N)=O)c1cc(Cl)ccc1Cl` (stereo not given), the T/C by setting is: (dose: 25.0 mg/kg/injection, schedule: Q01DX009 (ip), vehicle: water) 97 % of control; (dose: 50.0 mg/kg/injection, schedule: Q01DX009 (ip), vehicle: water) 103 % of control; under setting [2], 100 % of control; (dose: 100.0 mg/kg/injection, schedule: Q01DX009 (ip), vehicle: water) 101 % of control; (dose: 100.0 mg/kg/injection, schedule: Q04DX003 (ip), vehicle: water) 95 % of control; (dose: 200.0 mg/kg/injection, schedule: Q04DX003 (ip), vehicle: water) 100 % of control. For the same compound, the T/C (dose: 400.0 mg/kg/injection, schedule: Q04DX003 (ip), vehicle: water) was 100 % of control.

In the case of `O=[N+]([O-])c1ccc(-[n+]2ccccc2)c([N+](=O)[O-])c1`, the T/C reads like this: (dose: 37.5 mg/kg/injection, schedule: Q01DX009 (ip), vehicle: saline) 118 % of control; (dose: 75.0 mg/kg/injection, schedule: Q01DX009 (ip), vehicle: saline) 122 % of control; (dose: 150.0 mg/kg/injection, schedule: Q01DX009 (ip), vehicle: saline) 104 % of control.

For the compound `FC(F)(F)c1nc2cccc3c2n1CCC3`, the T/C by setting is: under setting [7], 100 % of control; under setting [8], 91 % of control.

As to `Nc1ccc(C(OC(=O)c2cc3ccccc3c(Cc3c(O)c(C(=O)OC(c4ccc(N)cc4)(c4ccc(N)cc4)c4ccc(N)cc4)cc4ccccc34)c2O)(c2ccc(N)cc2)c2ccc(N)cc2)cc1`, the T/C (dose: 12.5 mg/kg/injection, schedule: Q01DX009 (ip), vehicle: saline with Tween-80) was 150 % of control.

On to `COc1cc(/C(C)=N\O)ccc1O`, for which the T/C is 100 % of control (dose: 100.0 mg/kg/injection, schedule: Q01DX001 (ip), vehicle: other); 100 % of control (dose: 200.0 mg/kg/injection, schedule: Q01DX001 (ip), vehicle: other); 100 % of control (dose: 400.0 mg/kg/injection, schedule: Q01DX001 (ip), vehicle: other).

`CC(=O)[C@]1(O)Cc2c(O)c3c(c(O)c2[C@@H](OC2CC(N)C(O)C(C)O2)C1)C(=O)c1c(O)cccc1C3=O` (stereo not given in full): the T/C (dose: 0.32 mg/kg/injection, schedule: Q04DX003 (ip), vehicle: water) is 185 % of control; the T/C (dose: 0.39 mg/kg/injection, schedule: Q04DX003 (ip), vehicle: water) is 203 % of control; the T/C (dose: 0.54 mg/kg/injection, schedule: Q04DX003 (ip), vehicle: water) was 101 % of control; the T/C (dose: 0.9 mg/kg/injection, schedule: Q04DX003 (ip), vehicle: water) is 92 % of control; the T/C (dose: 1.08 mg/kg/injection, schedule: Q04DX003 (ip), vehicle: water) was 115 % of control.

As for `O=[N+]([O-])c1ccc(S(=O)(=O)c2ccc([N+](=O)[O-])cc2)cc1`, the T/C by setting is: under setting [7], 101 % of control; under setting [5], 110 % of control; under setting [6], 93 % of control.

Turning to `Cc1cc(=O)[nH]c(N(CCO)CCO)n1`, the T/C by setting is: under setting [2], 100 % of control; under setting [8], 100 % of control; under setting [4], 96 % of control; under setting [5], 95 % of control; (dose: 400.0 mg/kg/injection, schedule: Q01DX009 (ip), vehicle: saline with Tween-80) 88 % of control; under setting [6], 90 % of control.

Consider `O=C1c2ccccc2C(=O)c2c(Nc3ccc(CCO)cc3)ccc(O)c21`, for which the T/C reads like this: (dose: 100.0 mg/kg/injection, schedule: Q04DX003 (ip), vehicle: Klucel (hydroxypropylcellulose) (HPC)) 100 % of control; (dose: 200.0 mg/kg/injection, schedule: Q04DX003 (ip), vehicle: Klucel (hydroxypropylcellulose) (HPC)) 100 % of control; (dose: 400.0 mg/kg/injection, schedule: Q04DX003 (ip), vehicle: Klucel (hydroxypropylcellulose) (HPC)) 111 % of control.
